Entries after “also recorded” stand apart in the source; their conditions may differ.
How the values were obtained:
Dayo-human Glioma tumor = assay: AlamarBlue cell proliferation assay after radiosensitizer and irradiation, Dayo; format: cell-based; conditions: 0.1 μM; FIG. 4B, P<0.01
Experimental: Human glioma cell lines: Daoy (ATCC number: HTB-186) and
(§1) Human colorectal cancer cell line: HT-29 (ATCC number: HTB-38). All cells were cultured routinely in DMEM supplemented with 10% FCS.
(§2) Three hypericin derivatives were used in the assay, including hypericin tetrasulfonic acid (HyTS); Tetrabromo hypericin (TBrHy); and Hexamethyl hypericin (HxMeHy). In addition, as control, hypericin and/or Photofrin II as well as cells exposed only to radiation, i.e. without a radiosensitizing agent.
(§3) The hypericin, hypericin derivatives and photofrin II were used in doses ranging from 0.1 μM up to 2 μM. All compounds were dissolved in DMSO, and were protected from light.
(§4) In all cases, control and tumor cells were exposed to ionizing radiation (Siemens X-ray device with 250 kV or with LINAC) at 24 h after the incubation with Hyperecin, Photofrin II or Hypericin derivatives indicated below. The total delivered radiation dose was a 10 Gy, provided in a single irradiation session on the second day of culture. The response of the tumor to the radiation treatment was evaluated by determining growth delay using the described cell proliferation assay.
(§5) Cell proliferation assay using AlamarBlue
(§6) Unless indicated otherwise, the tumor cell lines were cultured at a starting density of 1×10^5 cells/mL in DMEM and 10% FCS. […] Absorbance was measured at 570 nm and 600 nm using a micro-titer plate reader. […]

[1] = test system: C6 Rat-Glioma grown as cancer stem cells spheres; assay: AlamarBlue cell proliferation assay after radiosensitizer and irradiation, C6 cancer stem cell spheres; format: cell-based; conditions: 0.1 μM; irradiation 10 Gy; 5 days post irradiation; FIG. 3B, P<0.049
Experimental: (§7) Rat glioma cell line: C6 (ATCC number: CCL107)
To obtain tumor stem cells, cells were cultured in stem cell conditioned media. Briefly, breast and glioma cancer cells were cultured in serum-free DMEM media containing […] bovine insulin, 100 μg/ml human transferrin, 100 μg/ml BSA, 60 ng/ml progesterone, 16 μg/ml putrescine, 40 μg/ml sodium selenite, 63 μg/ml N-acetylcysteine, 5 μM forskolin, 50 units/ml penicillin, and 50 μg/ml streptomycin, 10 ng/ml bFGF, and 10 ng/ml PDGF. In all experiments, cells were maintained in 100 mm or 96 well plate culture dishes at 37° C. in a humidified […] and were protected from light.
Three hypericin derivatives were used in the assay, including hypericin tetrasulfonic acid (HyTS); Tetrabromo hypericin (TBrHy); and Hexamethyl hypericin (HxMeHy). […]
as §4, with “The total delivered radiation dose was a 10 Gy, provided in a single irradiation session on the second day of culture.” left out, “assay. […]” for “assay.”
as §6

[2] = test system: C6 Rat-Glioma grown in monolayer; assay: AlamarBlue cell proliferation assay after radiosensitizer and irradiation, C6 monolayer; format: cell-based; conditions: 0.1 μM
Experimental: The following cell lines were originally obtained from the American Type Culture collection (ATTC):
as §7, §1, §2, §3
as §4, with “The total delivered radiation dose was a 10 Gy, provided in a single irradiation session on the second day of culture.” left out
as §5, §6

U87 Tumors [3] = conditions: wavelength of 665 nm; with or without radiation
Experimental: U87 Tumors were resected when tumors reached end-point (1500 mm^3), minced, and digested in 4 mg/ml collagenase III, 2 mg/ml hyaluronidase, and 2 mg/ml collagenase IV in serum free DMEM, for 20 min, at 37° C. Cells were then filtered through a 40 μm sieve, and washed twice with PBS to obtain single U87 cell suspension.
The single U87 tumor cell suspensions were then acquired on Cyan ADP flow cytometer (Beckman Coulter) and analyzed with Summit (Beckman Coulter) software.
The FL8 channel, (wavelength of 655/20 nm) was used to detect differences between positive and negative cells. From each sample, at least 50,000 cells were acquired.
(§8) These studies were aimed at assessing the localization of radiosensitizing agents and were conducted by two complementary techniques; the first in implanted U87 human glioma tumors using UV lamp and the second in extracted U87 tumors using Flow Cytometry techniques.

U87 Tumors [4] = conditions: during the 2 hours prior to radiation
Experimental: U87 Tumors were implanted subcutaneously in nude mice and then examined under a UV light lamp and the colour intensity was visualized.
as §8

[5] = test system: PANC01 human pancreatic adenocarcinoma cells; assay: PANC01 human pancreatic adenocarcinoma tumors in CB.17 SCID mice, tumor volume (Example 4C); format: in vivo; conditions: 10 mg/kg + 10 Gy radiation; for tumor volume of PANC1 pancreatic tumors, agent with radiation: CB.17 SCID mice, FIG. 8B
Experimental: Mice were injected with the radiosensitizing agent, and immediately after were placed in the dark. Radiation was conducted 2 hours after radiosensitizing administration. […] Tumor volume was measured prior to the treatment and thereafter twice weekly.

U87 human glioma tumors [6] = conditions: 10 mg/kg + 10 Gy radiation; CB.17 SCID mice; FIG. 8A
Experimental: U87 human glioma cells at a concentration of 5×10^6 were implanted into the flank of eight to ten weeks old CB.17 SCID mice (n=4-5 mice per group).
Treatment was initiated when the tumors reached a size of 100-150 mm^3, and included the following treatment groups:
Specifically, mice were injected with the radiosensitizing agent, and immediately placed in the dark. Radiation was initiated two hours after radiosensitizing administration. Mice were kept in the dark for the following 72 hours, in order to minimize the effect of light on the traces of the radiosensitizing agents. Tumor volume was monitored prior to treatment and thereafter twice weekly.

[7] = brain sections of treated mice, fluorescence 550-650 nm
[8] = test system: HT29-colon cancer grown as cancer stem cells spheres; assay: Example 2B AlamarBlue proliferation, HT29 cancer stem cells; format: cell-based, human; conditions: 0.1-2 μM; single dose 10 Gy; FIG. 6B; compared with monolayer
Experimental: (§9) Linear cell (Lin) HT29 and MCF7 human breast carcinoma, were obtained from the American Type Culture Collection (ATCC).
(§10) Enrichment of the cancer stem cells (CSCs) population was done by incubating linear cells in a DMEM/F-12 (HAM) 1:1 medium supplement with Insulin-Transferin-Soldium Selenite, and growth factors specific for each cell line. Cells considered enriched for CSCs after 10-15 days in CSCs medium.
(§11) Three photosensitizing agents were used, Hypericin (Hy), Tetrabromo hypericin (TBrHy), and hypericin tetrasulfonic acid (HyTS) in the following concentrations: 0.1 μM, 1 μM and 2 μM. Drugs were protected from light for all time. Control cells were treated with 0.1% DMSO (vehicle).
(§12) Linear and CSC were exposed to 3 Gy irradiation daily for four consecutive days or to a single dose of 10 Gy radiation. Radiation was initiated one day after treatment with the hypericin or hypericin derivatives.
Linear and CSCs were cultured in a 96 plate in triplicates. Each cell line was treated with the three radiosensitizing agents in the indicated doses. In addition culture cells were exposure to radiation. A day before the irradiation, the radiosensitizing agents were added to the culture. […] Cells viability was measured using Eliza Reader at two different wavelengths: 570 nm and 600 nm, and the appropriate equation was calculated to reflect cell viability.

[9] = test system: MCF-7 human breast carcinoma; assay: AlamarBlue cell proliferation assay after radiosensitizer and irradiation, MCF-7 monolayer; format: cell-based; conditions: 1 μM
Experimental: (§13) Human breast carcinoma: MCF-7 (ATCC number: HTB-22); MDA-MB-231 (ATCC number: HTB-26)
as §1, §2, §3
as §4, with “assay. […]” for “assay.”
as §6

[10] = test system: MCF-7 human breast carcinoma grown as monolayer; assay: Example 2B AlamarBlue proliferation, MCF7 linear cells; format: cell-based; conditions: 0.1-2 μM; single dose 10 Gy; FIG. 6C
Experimental: as §9
(§14) Cells were cultured in Dulbecco's Modified Eagle Medium (DMEM), supplemented with 10% fetal calf serum (FCS) and antibiotics.
as §11, §12
(§15) Linear and CSCs were cultured in a 96 plate in triplicates. Each cell line was treated with the three radiosensitizing agents in the indicated doses. In addition culture cells were exposure to radiation. A day before the irradiation, the radiosensitizing agents were added to the culture. Cells were allowed to grow over a period of 5 days using the method of AlamarBlue™ reduction assay. 10% Alamar Blue solution added to each well. Cells viability was measured using Eliza Reader at two different wavelengths: 570 nm and 600 nm, and the appropriate equation was calculated to reflect cell viability.

[11] = test system: HT29-colon cancer grown in monolayer; assay: Example 2B AlamarBlue proliferation, HT29 linear cells; format: cell-based, human; conditions: 0.1-2 μM; single dose 10 Gy; FIG. 6A
Experimental: as §9, §14, §11, §12, §15

[12] = test system: HT29-human colon carcinoma; assay: AlamarBlue cell proliferation assay after radiosensitizer and irradiation, HT29; format: cell-based; conditions: FIG. 4E, P<0.05
Experimental: as §1, §2, §3, §4, §5, §6

[13] = test system: MD-MB-231-human breast carcinoma; assay: AlamarBlue cell proliferation assay after radiosensitizer and irradiation, MDA-MB-231; format: cell-based; conditions: 1 μM; FIG. 4C, P<0.05
Experimental: as §13, §1, §2, §3
as §4, with “assay. […]” for “assay.”
as §6

[14] = test system: MCF-7 human breast carcinoma grown as cancer stem cells spheres; assay: Example 2B AlamarBlue proliferation, MCF7 cancer stem cells; format: cell-based; conditions: for inhibiting proliferation of MCF7 human breast cancer cells grown as stem cells: 0.1-2 μM, single dose 10 Gy, FIG. 6D; for effect in MCF7 cancer stem cells compared with monolayer: FIGS. 6C and 6D
Experimental: as §9, §10, §11, §12, §15

[15] = Treatment toxicity: body weight and overall behaviour (Example 4A); format: in vivo, nude mice; conditions: 10 mg/kg; for tolerability of treatment: alone or in combination with radiation, nude mice; for change in mice body weight and mice behaviour: measured twice weekly
Experimental: (§16) Mice injected with 5% DMSO vehicle served as the control untreated group. Immediately after the injections, the mice were placed in the dark. For each group of radiosensitizing agent treated mice, half of the treated mice were then treated with a 10 Gy dose of radiation, initiated two hours after the administration of the radiosensitizing agents.
Treatment toxicity was evaluated using two parameters, (i) measuring mice's body weight and (ii) monitoring overall mice behaviour, both parameters were measured twice weekly.

U87 human glioma tumors [16] = assay: U87 human glioma tumors implanted in nude mice, tumor growth (Example 4A); format: in vivo; conditions: 10 mg/kg + 10 Gy radiation
Experimental: as §16
Overall, eight groups of treatment were evaluated as follows:
Tumor growth was evaluated by measuring the tumor's volume twice weekly.

COc1cc(C)c2c3c(C)cc(OC)c4c(=O)c5c(OC)cc(OC)c6c7c(OC)cc(OC)c8c(=O)c1c2c(c87)c(c43)c56 [HxMeHy, Hexamethyl hypericin]
radiosensitizing effect on Dayo tumor (proliferation on day 5) (Dayo-human Glioma tumor): effective radiosensitizing agent
proliferation of C6 glioma cells grown as CSCs (AlamarBlue, fold increase) [1]: statistically inhibited the proliferation
radiosensitizing effect on C6 brain cancer (proliferation on day 5) ([2]; FIG. 4A): effective radiosensitizing agent
proliferation of C6 glioma cells in monolayer (AlamarBlue, fold increase) ([2]; irradiation 10 Gy, 5 days post irradiation, FIG. 3A, P<0.05): statistically inhibited the proliferation

Cc1c(S(=O)(=O)O)c(O)c2c(=O)c3c(O)c(S(=O)(=O)O)c(O)c4c5c(O)c(S(=O)(=O)O)c(O)c6c(=O)c7c(O)c(S(=O)(=O)O)c(C)c8c1c2c(c34)c(c78)c65 [HyTS, hypericin tetrasulfonic acid]
fluorescent signal of tumor cells by flow cytometry (U87 Tumors [3]): fluorescent signal was detected
colour of tumors under UV light (U87 Tumors [4]): colored in red
anti-tumor activity in PANC1 pancreatic tumors compared with U87 [5]: somewhat better activity
tumor volume of PANC1 pancreatic tumors, agent with radiation [5]: anti-tumor activity
tumor volume of U87 tumors, agent with radiation (U87 human glioma tumors [6]): anti-tumor activity
BBB penetration [7]: does not penetrate the BBB
sensitivity of HT-29 colon cancer stem cells to treatment [8]: more sensitive
radiosensitizing effect on breast cancer MCF-7 (proliferation on day 5) ([9]; FIG. 4D, P<0.01): statistically significantly effective
proliferation of MCF-7 breast cancer cells grown as monolayer (AlamarBlue, fold increase) ([9]; irradiation 10 Gy, 5 days post radiation, FIG. 3C, P<0.03): statistically inhibited the proliferation
inhibiting proliferation of MCF7 human breast cancer cells grown as monolayer [10]: effective in inhibiting the proliferation
radiosensitizing HT-29 colon cancer cells (monolayer) [11]: effective in radiosensitizing
radiosensitizing effect on colon cancer HT29 (proliferation on day 5) ([12]; 1 μM): effective radiosensitizing agents
radiosensitizing effect on breast cancer MD-MB-231 (proliferation on day 5) [13]: statistically significantly effective
inhibiting proliferation of MCF7 human breast cancer cells grown as stem cells [14]: effective in inhibiting the proliferation
effect in MCF7 cancer stem cells compared with monolayer [14]: more pronounced
tolerability of treatment [15]: well tolerated
change in mice body weight and mice behaviour [15]: no significant change

Cc1c(Br)c(O)c2c(=O)c3c(O)c(Br)c(O)c4c5c(O)c(Br)c(O)c6c(=O)c7c(O)c(Br)c(C)c8c1c2c(c34)c(c78)c65 [TBrHy, Tetrabromo hypericin]
fluorescent signal of tumor cells by flow cytometry (U87 Tumors [3]): fluorescent signal was detected
colour of tumors under UV light (U87 Tumors [4]): colored in red
tumor volume of PANC1 pancreatic tumors, agent with radiation [5]: most potent radiosensitizing agent; also recorded: enhanced anti-tumor activity
BBB penetration [7]: penetrated the BBB
tumor growth of U87 tumors, agent combined with radiotherapy (U87 human glioma tumors [16]; nude mice, FIG. 7): most effective radiosensitizing agent; also recorded: better anti-tumor activity
tumor removal in one mouse (U87 human glioma tumors [16]; one mouse, 4 days after treatment): completely removed
inhibiting proliferation of MCF7 human breast cancer cells grown as monolayer [10]: effective in inhibiting the proliferation
radiosensitizing effect on colon cancer HT29 (proliferation on day 5) ([12]; 0.1 μM): effective radiosensitizing agents
inhibiting proliferation of MCF7 human breast cancer cells grown as stem cells [14]: effective in inhibiting the proliferation
effect in MCF7 cancer stem cells compared with monolayer [14]: more pronounced
tolerability of treatment [15]: well tolerated
change in mice body weight and mice behaviour [15]: no significant change
